Laboratory results published in PMC7083565, “In vitro metabolism, reaction phenotyping, enzyme kinetics, CYP inhibition and induction potential of ataluren” (Pharmacology Research & Perspectives, 2020).
Read-outs that look alike come from different tables or passages of the source.

What was measured:
[1] = Ataluren glucuronidation kinetics, human intestinal microsomes; assay type: in vitro ADME; settings: for CLint,u,UGT (scaled) / K m / K m, u / V max: HIM; for CLint,u,UGT (scaled): 20.6 mg protein/g tissue; for K m / K m, u / V max: mean ± SE; for K m / K m, u / V max / fraction unbound at 15 min: n = 3; for fraction unbound at 15 min / microsomal CLint: human, pH 7.5, HIM; for fraction unbound at 15 min: pooled human intestinal microsomes incubation mixture, mean ± SD, read-out: fu,inc; for microsomal CLint: pooled human intestinal microsomes, read-out: CLint,u,UGT
Experimental: Ataluren at 0.5, 2.5, 12.5, 25, 50, 100, 200, and 400 µmol/L, was incubated (n = 3) at 37°C with recombinant human UGT1A9 and with pooled microsomes from human liver, kidney, and intestine (0.025 mg protein/mL, preactivated with alamethicin at 20 µg/mL) in Tris‐HCl buffer (0.1 mol/L, pH 7.5), in the presence of 1 mmol/L EDTA, 5 mmol/L MgCl2, with or without 0.5%, 1%, or 2% BSA. The incubation (100 µL final volume with 0.5% DMSO) was started by adding an equal volume of UDPGA (5 mmol/L) in Tris‐HCl buffer (0.1 mol/L, pH 7.5). After 30 minutes incubation, the incubation mixtures were combined with 0.3 mL of an internal standard solution in acetonitrile with 1% formic acid, followed by membrane plate filtration. The filtrates were used for LC‐MS/MS analysis to quantify the formation of ataluren‐O‐1β‐acyl glucuronide. Detailed LC‐MS/MS conditions are summarized in LC‐MS/MS Analysis section. Ataluren acyl glucuronide formation rate after 30 minutes incubation was calculated using the amount of metabolite formed (pmol) divided by the protein amount in the incubation sample (0.0025 mg) and the incubation time (30 minutes). Ataluren glucuronidation kinetic parameters were determined with and without adjusting BSA binding by nonlinear regression (GraphPad Prism, 5version 5.04, GraphPad Software, Inc.) using Michaelis‐Menten equation which was the best fit compared with other models. The intrinsic clearance was calculated as CLint = Vmax/Km. In order to compare unbound intrinsic clearance by glucuronidation (CLint,u,UGT) in different tissues, CLint,u,UGT was expressed per gram of tissue by correcting the values for the microsomal protein yield, resulting in scaled CLint,u,UGT. Microsomal protein yields of 40.0, 12.8, and 20.6 mg protein/g tissue were used for hepatic, renal, and intestinal data, respectively. ^26
The high‐throughput membrane ultrafiltration method ^27 was used to determine the fraction unbound in the incubation (n = 3). Incubation mixtures and procedures were essentially the same as the above except that UDPGA (5 mmol/L) was replaced with Tris‐HCl buffer (0.1 mol/L, pH 7.5). After 15 minutes incubation, aliquot was transferred to a Millipore Multiscreen Ultracel‐10 filter plate (10 kDa molecular mass cut off; EMD Millipore). The plate was centrifuged at 37°C and 3710 g. After 30 minutes centrifugation, aliquots of ultrafiltrates and incubation mixtures prior to ultrafiltration were quenched with an internal standard solution in acetonitrile, followed by membrane plate filtration. The filtrates were used for LC‐MS/MS analysis to quantify the concentration of ataluren. The same LC‐MS/MS conditions described above are summarized in LC‐MS/MS Analysis section. The free fraction = Cu/Cm, where Cu is the concentration of ataluren in the ultrafiltrate and Cm is the concentration of ataluren in the incubation system before centrifugation. Unbound Km (Km, u) was recalculated by applying Michaelis‐Menten equation using free ataluren concentrations after correcting BSA binding at each ataluren and BSA concentration level.
Quantification of ataluren‐O‐1β‐acyl glucuronide formation was conducted on an Accela pump and a PAL autosampler equipped with a TSQ Quantum Ultra mass spectrometer (Thermo Fisher Scientific). A Waters Acquity BEH column (C18, 1.7 µm, 50 × 2.1 mm; Waters Cooperation) was used and maintained at 50°C. The mobile phases were 0.1% formic acid in water (A) and acetonitrile (B). The flow rate was 0.6 mL/min and gradient program was as follows: linear gradient from 0% B to 95% B in 0.5 minutes and hold isocratic at 95% B for 1 minute; linear gradient from 95% B to 0% B in 0.1 minutes and hold isocratic at 0% B for 0.4 minutes. TSQ Quantum Ultra mass spectrometer was equipped with a heated electrospray ionization source operated in negative‐ion mode with a vaporizer temperature of 350°C, capillary temperature of 380°C, and spray voltage of 3 kV. […]

[2] = tested on: CYP3A4/5; test: CYP induction in primary human hepatocytes: CYP3A4/5; assay type: in vitro ADME; settings: Testosterone 6β-hydroxylase, 48 hours, n=3
Experimental: Human hepatocytes isolated from three Caucasian males were transferred to 48‐well collagen‐coated plates at 0.14 × 10^6 cells/well in planting media for attachment. After attachment, planting media was replaced with sandwich media and the cells were incubated until clusters were established. […] The incubation solutions were aspirated and replaced with freshly prepared incubation solutions containing ataluren for an additional 24 hours. […] The incubation solutions were then aspirated and 150 µL of K‐H buffer containing CYP substrates were added. The hepatocytes were incubated for 30 minutes for CYP2C8 (10 µmol/L amodiaquine), 1 hour for CYP3A4 (125 µmol/L testosterone), and 4 hours for CYPs 1A2 (100 µmol/L phenacetin), 2A6 (100 µmol/L coumarin), 2B6 (150 µmol/L bupropion), 2C9 (50 µmol/L tolbutamide), 2C19 (100 µmol/L S‐mephenytoin), and 2E1 (300 µmol/L chlorzoxazone) activity assays. The reactions were stopped by the addition of 0.15 mL of ice‐cold methanol except that coumarin‐treated cells were incubated with β‐glucuronidase and aryl sulfatase for additional 1 hour to free 7‐hydroxycoumarin before the addition of 0.2 mL of ice‐cold methanol. Metabolite formation in incubations with test compounds and control inhibitors was assessed with validated LC‐MS/MS methods for each of the reaction products as described in Table S2. Enzymatic activity for each CYP was calculated using the absolute amount of metabolite formed (pmol) divided by hepatocytes in the incubation (million cells) and the incubation time (minute). The relative fold induction in enzymatic activity was calculated by comparing the rate of metabolite formation for treatment groups to that of the solvent control group (reported as vehicle control%) or positive control group (reported as positive control%).

[3] = tested on: human hepatocytes; test: MTT cytotoxicity assay in human hepatocytes; assay type: cell-based; settings: at the concentrations tested (4, 40, 400 µmol/L), data not shown

For O=C(O)c1cccc(-c2noc(-c3ccccc3F)n2)c1 [ataluren, Ataluren], the “CLint,u,UGT (scaled)” value ([1]; 0% BSA) was 0.974 mL/min/g of tissue, the K m ([1]; 0% BSA) was 15.8 ± 3.35 µM and the “K m, u” value ([1]; 0% BSA) was 15.8 ± 3.10 µM. The V max ([1]; 0% BSA) was 747 ± 32.7 pmol/min/mg, the “CLint,u,UGT (scaled)” value ([1]; 0.5% BSA) was 3.38 mL/min/g of tissue and the K m ([1]; 0.5% BSA) was 43.8 ± 6.88 µM. The “K m, u” value ([1]; 0.5% BSA) was 4.03 ± 0.646 µM, the V max ([1]; 0.5% BSA) was 660 ± 28.3 pmol/min/mg and the “CLint,u,UGT (scaled)” value ([1]; 1% BSA) was 3.64 mL/min/g of tissue. For the same compound, the K m ([1]; 1% BSA) was 82.4 ± 11.3 µM, the “K m, u” value ([1]; 1% BSA) was 4.02 ± 0.544 µM and the V max ([1]; 1% BSA) was 711 ± 31.2 pmol/min/mg. The “CLint,u,UGT (scaled)” value ([1]; 2% BSA) was 3.39 mL/min/g of tissue, the K m ([1]; 2% BSA) was 145 ± 22.0 µM and the “K m, u” value ([1]; 2% BSA) was 4.74 ± 0.835 µM. The V max ([1]; 2% BSA) was 767 ± 54.6 pmol/min/mg, the “maximal effect of BSA on CLint,u (increase)” value ([1]; human intestine microsomes, with vs without BSA) was ~3.7 fold and the fraction unbound at 15 min ([1]; 0% BSA) was 1 ± 0.137. For the same compound, the fraction unbound at 15 min ([1]; 0.5% BSA) was 0.1 ± 0.0021, the fraction unbound at 15 min ([1]; 1% BSA) was 0.056 ± 0.002 and the fraction unbound at 15 min ([1]; 2% BSA) was 0.036 ± 0.002. The microsomal CLint ([1]; 0% BSA) was 47.3 µL/min/mg, the microsomal CLint ([1]; 0.5% BSA) was 164 µL/min/mg and the microsomal CLint ([1]; 1% BSA) was 177 µL/min/mg. The microsomal CLint ([1]; 2% BSA) was 164 µL/min/mg, the “Positive control %, Mean” value ([2]; ataluren 4 µM) was 0.594% and the “Vehicle control %, Mean” value ([2]; ataluren 4 µM) was 103%. The “Positive control %, Mean” value ([2]; ataluren 40 µM) was 1.52%, the “Vehicle control %, Mean” value ([2]; ataluren 40 µM) was 105% and the “Positive control %, Mean” value ([2]; ataluren 400 µM) was 3.72%. The “Vehicle control %, Mean” value ([2]; ataluren 400 µM) was 109% and the “cytotoxicity (MTT assay)” value [3] was “not cytotoxic”.
